Test results as given in the METLIN SMRT retention time set (Domingo-Almenara et al. 2019).

Test: gradient 5% acetonitrile 3 min, to 50% in 2 min, to 85% in 15 min, held 3 min, 100 µL/min
Conditions: column: Zorbax Extend-C18 2.1 x 50 mm; eluents: water / acetonitrile, 0.1% formic acid
In short: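 Data were gathered over 3 months by HPLC coupled to a quadrupole time-of-flight mass spectrometer, operated in positive and negative ionization mode. Mixtures of ~100 pure standards ran on a Zorbax Extend-C18 column (2.1 × 50 mm, 1.8 μm) at 100 μL/min, with water and acetonitrile each containing 0.1% formic acid and dead and dwell volumes of 40 μL and 900 μL. Retention time was read from adduct peaks picked by computer and checked manually.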

Structure (SMILES)	RP-LC retention time
Cc1ccc(-c2csc(Nc3ccc(Br)cn3)n2)cc1C	1340 s
O=C(Cn1nc2c(cc1=O)CCCC2)N[C@@H](Cc1ccccc1)C(=O)O	682 s
Cn1c(=O)c(N2CCCC(C(=O)N3CCN(Cc4ccc5c(c4)OCO5)CC3)C2)nc2ccccc21 (stereo not drawn)	674 s
Cc1ccc2[nH]cc(CCN3CC(C(=O)Nc4cccc(Br)c4)CC3=O)c2c1 (stereo not drawn)	911 s
COc1ccc(N2CC(c3nc(-c4cccc(-c5ccnn5C)c4)no3)CC2=O)cc1 (stereo not drawn)	844 s
Cc1nn(CC(=O)NCc2cccs2)c(=O)c2nc(-c3ccccc3)sc12	813 s
COc1ccc(CN(C)Cc2cc(=O)n3ccccc3n2)cc1OC	573 s
CCCc1c(C(=O)O)nnn1-c1ccc(Cl)cc1	778 s
Cc1ccc(Cn2c(CN3CCC(C(=O)NC4CC4)CC3)cc3ccccc32)cc1	716 s
Cc1ccc(S(=O)(=O)N2CCCC(C(=O)Nc3cc(-c4nc(C)cs4)sc3C)C2)cc1 (stereo not drawn)	1060 s
CC1CCc2nc(NC(=O)CSc3nnc(-c4ccccc4)o3)sc2C1 (stereo not drawn)	989 s
O=C(Nc1ccc2c(c1)CCC(=O)N2Cc1ccccc1)c1ccccc1C(F)(F)F	855 s
Cc1ccc(-n2nc(SC(C)C(=O)NC3CC3)ccc2=O)cc1Cl (stereo not drawn)	750 s
O=C(NCC(O)C1CCCCC1)c1cccc2ccccc12 (stereo not drawn)	802 s
O=C(Nc1ccc2c(c1)OCCO2)N1CCC2(CC1)CC(N1CCCC1)CCO2 (stereo not drawn)	586 s
CCCNC(=O)CN1CCN(c2cc(C(=O)O)c3cc(NC(=O)C(C)C)ccc3n2)CC1	568 s
O=C(Nc1ccccc1Cl)N1CCN(CCn2c(-c3ccncc3)nc3cccnc32)CC1	588 s
O=C(Cn1cccc(-c2nc(-c3ccc(F)cc3)no2)c1=O)NCc1ccccc1Br	898 s
CCn1cc2c3c(cccc31)CN(C(=O)Nc1ccc(Cl)cc1F)CC2	1050 s
O=C(CN1CCN(Cc2cccc(Cl)c2)C1=O)NCc1ccncc1	599 s
Cc1ccc(CNC(=O)c2cccn2Cc2noc(C)n2)cc1	828 s
COCC(=O)Nc1cc2c(cc1N1CCCCC1)n(C)c(=O)c(=O)n2C	775 s

Structure (SMILES)	RP-LC retention time
O=C(O)c1cn2ccnc(-c3ccccc3)c2n1	644 s
O=c1c(NCCCc2ccccc2)nc2ccncc2n1Cc1ccccc1	778 s
O=C(NC1CCCCC1)c1cc2c(s1)CCN(C(=O)c1ccc(F)cc1)C2	893 s
Cc1cc(C)c2c(N3CCCC3)nc(C(=O)NCc3cccs3)nc2n1	643 s
Cc1ccc(C(=O)N2CCCCCNC(=O)[C@@H]3CCC[C@@H]32)s1	740 s
Cc1ccc2cc(CCC(=O)NCCc3cccnc3)c(=O)[nH]c2c1	586 s
CCc1noc(-c2cnc3nc(C)ccc3c2Nc2cccc(OC)c2)n1	778 s
CC(C)c1ccc(S(=O)(=O)N2CCC3(CCN(c4cccnc4)C3)C2)cc1 (stereo not drawn)	736 s
CCNC(=O)c1ccc(-c2nc3cc(NS(=O)(=O)c4cccs4)ccc3n2C)cc1	630 s
Cc1ccccc1-c1nc(-c2ccc3c(c2)nc(C)c(=O)n3C)no1	1120 s
Cc1ccc(C)c(NS(=O)(=O)c2c(C)sc(C)c2-c2n[nH]c(C)c2C)c1	1140 s
CC(C)NC(=O)CN1C(=O)C2CCCCN2c2ccc(S(=O)(=O)N3CCCCC3)cc21 (stereo not drawn)	850 s
CCC(C)NC(=O)c1ccc(CN2CCN(Cc3ccc(F)cc3)C(=O)C2=O)cc1 (stereo not drawn)	739 s
O=C(NCc1ccco1)N1CCN(c2nc3cccnc3n(Cc3ccccc3)c2=O)CC1	935 s
CCCn1cc(C2=CCN(C(=O)NCc3ccc(C)cc3)CC2)c2cccnc21	939 s
CCn1ccc(C(=O)Nc2ccc3ncnc(N4CCCC4)c3c2)n1	616 s
COc1ccc(Cl)c2c(=O)c3c([nH]c12)CCN(CC(=O)NCc1ccccc1F)C3	625 s
CCN1C(=O)COc2ccc(-c3noc(-c4cccc(F)c4)n3)cc21	1170 s
O=C(Cc1cccnc1)N1CCC[C@H]1c1nc(-c2ccccc2)n[nH]1	578 s
CCc1ccc(-c2cc3c(=O)n(Cc4noc(CN5CCC(C)CC5)n4)ccn3n2)cc1	757 s
CNc1nnc(-c2nnc(C)o2)c2ccccc12	567 s
CCCNC(=O)C1CCN(c2ccc(SCC(=O)Nc3ccc4c(c3)OCCO4)nn2)CC1	626 s

Structure (SMILES)	RP-LC retention time
CCN(c1ccccc1F)S(=O)(=O)c1cc2n(c1)CCCN(C)C2=O	780 s
CCc1ccc(-c2noc(CN3C(=O)COc4cc(C)ccc43)n2)cc1	1170 s
CN(C)c1ccc(CNC(=O)Cn2nc(C(=O)N3CCCC3)c3ccccc32)cc1	612 s
CC1=C(c2ccc(C)c(C)c2)S(=O)(=O)N=C1N1CCCN(C(=O)C(C)(C)C)CC1	903 s
Cc1noc([C@@H]2CN(Cc3c(F)cccc3F)C[C@H]2CO)n1	562 s
Cn1cnc(S(=O)(=O)N2CCC(Cc3nncn3-c3ccccc3)CC2)c1	629 s
O=S(=O)(c1cccc2cccnc12)N1CC[C@@H]2COCCN(Cc3cccnc3)[C@@H]2C1	600 s
COc1ccc(N2CCN(C(=O)c3cc4cc5cc(OC)ccc5nc4o3)CC2)cc1	829 s
COc1ccccc1CNc1c(-c2ccc(OC(C)C)cc2)nc2ncccn12	826 s
Cc1ccc2[nH]cc(CCNC(=O)Cn3c4ccccc4c4cnn(C)c(=O)c43)c2c1	839 s
Cc1ccc2c(ccn2CCNC(=O)C2CC(=O)N(c3n[nH]c4ccccc34)C2)c1 (stereo not drawn)	766 s
CCOC(=O)c1cc(S(=O)(=O)N2CCCC2C(=O)N(Cc2ccco2)C2CCCC2)cn1C (stereo not drawn)	992 s
Cc1ccc(-c2noc(-c3cccc(S(=O)(=O)NCc4ccc(C)o4)c3)n2)cc1	1170 s
Cc1ccc(S(=O)(=O)c2cnc(N3CCN(C4CCCCC4)CC3)nc2N)cc1C	718 s
CCC(=O)Nc1ccc(C2(C(=O)N3CCOCC3)CCCCC2)cc1	721 s
CCOC(=O)C1=C(CN2CC(C)CC(C)C2)NC(=O)NC1c1ccc(OC)cc1 (stereo not drawn)	653 s
Cc1ccc(-c2nnc(N3CCC(C(=O)NCCN4CCOCC4)CC3)o2)cc1	614 s
CN(CC(=O)N1CCN(Cc2ccccc2)CC1)S(=O)(=O)c1ccc2c(c1)CCCC(=O)N2	600 s
Cc1cc(-c2c(C)sc(C)c2S(=O)(=O)Nc2cccc(Cl)c2)n[nH]1	1110 s
O=C(Cn1c(=O)c2cccn2c2ccc(F)cc21)NCCCN1CCOCC1	602 s
COc1ccc(C(=O)CC2(O)C(=O)Nc3ccc(C)cc32)cc1OC (stereo not drawn)	670 s
O=C(c1ccc(OCC2CCCN2C(=O)C2CCCC2)cc1)N1CCOCC1 (stereo not drawn)	750 s

Structure (SMILES)	RP-LC retention time
O=C(O)CCNc1c(-c2ccc(F)cc2)nc2cnccn12	619 s
CCCC[C@@H](C)/C=C(C)/C=C(\C)C(=O)NC1=C[C@@](O)(/C=C/C=C/C=C/C(=O)NC2=C(O)CCC2=O)[C@@H]2OC2C1=O (stereo partly drawn)	1250 s
CCn1cc(C(=O)Nc2cc(OC)cc(OC)c2)c(S(=O)(=O)N2CCSCC2)n1	992 s
CCSc1nccc2c1ccn2CC(=O)NCc1ccc(OC)cc1OC	651 s
CCc1nc(-c2csc(S(=O)(=O)N3CCCC(C(=O)NCc4cc(C)ccc4C)C3)c2)no1 (stereo not drawn)	1080 s
c1ccc2c(c1)CCN(Cc1nc(-c3ccc(N4CCCC4)nc3)no1)C2	583 s
CCc1ccc(NC(=O)c2c(C)oc3nc(C)nc(N4CCCC4)c23)cc1	830 s
O=C(CCC1CCN(S(=O)(=O)c2ccccc2F)CC1)NC1CC1	752 s
COC(=O)c1ccc2c(=O)n(-c3ccccc3)c(N3CCC(C)CC3)nc2c1	1210 s
N#Cc1ccc(C(=O)NC2CCN(c3cc(-c4cccs4)[nH]n3)C2)cc1 (stereo not drawn)	700 s
CC(=O)N1CCc2cc(-c3ccc(C(=O)NCCCN4CCCC4=O)cc3)ccc21	672 s
O=C(Nc1ccccc1)c1ccc(=O)n(CCN2CCOCC2)c1	590 s
CC(=O)Nc1cccc(C(=O)NCCc2c[nH]c3ccc(Cl)cc23)c1	736 s
CC(=O)Nc1ccc(NC(=O)Cn2ccn3nc(-c4ccc(F)cc4)c(CO)c3c2=O)cc1	670 s
COc1cccc(NC(=O)C2CCN(c3cc(N4CCCC4)ncn3)CC2)c1	652 s
COc1cccc(N2CCN(C(=O)C3CCN(S(=O)(=O)c4cn(C)c(C)n4)CC3)CC2)c1	702 s
CCOC(=O)CCNC(=O)N1CCN(Cc2nc3cc(-c4ccccc4)ccc3o2)CC1	675 s
O=C(c1nc(Nc2ccc(F)cc2)c2ccccc2n1)N1CCOCC1	685 s
CCC(C)OC(=O)C1=C(C)NC(=O)NC1c1ccccc1F (stereo not drawn)	800 s
Cc1cccc(Cn2nc3n(Cc4ccc(F)cc4)c(=O)c4nn(C)cc4n3c2=O)c1	940 s
Cc1sc(C)c(C(=O)NC2(c3ccc(C(=O)O)cc3)CC2)c1Cc1ccc(C(F)(F)F)cc1	1070 s
COCCCNC(=O)C1c2ccccc2C(=O)N1Cc1ccccc1F (stereo not drawn)	708 s
